# Assay results published in article PMC9227536, “Prediction of Pharmacokinetics of IDP-73152 in Humans Using Physiologically-Based Pharmacokinetics” (Pharmaceutics, 2022).
# Where two headings read alike, the source gives them in different places.
# Key:
# [1] = Blood stability in rat blood (CLblood); format: in vitro ADME
# Method: In contrast, however, the compound was unstable in the rat blood and plasma. […] The blood containing IDP-73152 was incubated at 37 °C in a water bath, and aliquots (50 μL) were collected from the mixture at 0, 10, 30, 60, 120, and 240 min. The samples were centrifuged for 5 min at 10,000× g/4 °C, and the plasma was collected/stored at -80 °C until analysis. For the estimation of the clearance in the blood (CLblood), in rats, the disappearance of IDP-73152 in the blood was assumed to be mediated by first-order kinetics. […]×total volume of the blood×BP ) to calculate CLblood.
# [2] = Tissue distribution at steady state, constant-rate infusion in rats; format: in vivo; details: for Kp at 10 h: 10 h infusion, read-out: KP,ss
# Method: In this study, the extent of tissue distribution of IDP-73152 was also determined in rats. Rats received IDP-73152 at a constant rate of infusion (i.e., the rate of 0.8 mg/h (in 0.6 mL/h)) using a syringe pump (PHD ULTRA, Harvard apparatus, Holliston, MA, USA). The steady state was assumed to have been achieved when IDP-73152 was infused for 10 h (see below). Upon completion of the infusion, the animal was sacrificed, and major tissues (i.e., adipose tissue, brain, heart, kidney, liver, lung, muscle, skin, spleen, and testis) were collected. Assuming the density of tissues to be 1 g/mL, tissue samples were homogenized in twice their volume of phosphate buffered saline using a homogenizer (Ultra Turrax homogenizer, IKA-Werke GmbH & Co. KG, Staufen, Germany). Plasma samples and tissue homogenates were stored at −80 °C until analysis. The tissue-to-plasma concentration ratio at steady state (KP,ss) was then calculated for each tissue using the following equation [23, 24, 25]:(8) KP,ss=Ctissue,ss/Cplasma,ss, where Ctissue,ss and Cplasma,ss represent the concentration of the compound in the tissue and plasma at steady-state.
# For the estimation of the volume of the distribution of IDP-73512 in rats, the steady-state volume of distribution (Vss) was calculated using the following equation [30]:(10) Vss=VP+Vrbc×EP+∑VT,i×KP,ss,i, where Vp, Vrbc, and VT,i are the volumes of plasma, red blood cells, and tissues, respectively. The erythrocyte-to-plasma partition coefficient (EP), is calculated by EP=1+(BP−1)/Hematocrit . The KP,ss for each tissue obtained from Equation (8) was applied for Equation (10). For the case of non-eliminating organs, the KP,ss was regarded as the tissue-to-plasma partition coefficient (KP) in PBPK equations (Appendix A). For the case of the liver—i.e., the eliminating organ—the KP,ss (KP,ss,LI) had to be corrected to account for the equilibrium being altered by the elimination. Thus, a PBPK-operative KP for liver (KP,LI) was calculated using the following equation [31]:(11) KP,LI=KP,ss,LI/(1−ER), where ER is the hepatic extraction ratio of the compound (i.e., CLh/(QLI·BP)). In this study, a compartmental absorption and transit (CAT) model consisting of stomach and five intestinal segments was considered for the description of the intestinal absorption kinetics of IDP-73152 in animals and humans. We assumed that the initial compartment denoted the stomach (Equation (12)), and the subsequent three compartments represented the small intestine and two additional compartments for the large intestine (i.e., a total of six compartments, with absorption occurring in the five intestinal compartments) (Equation (13)). The differential equations describing the rate of drug absorption and transit in the gastrointestinal tract can be written as: […]
# [3] = PK study in mice (intravenous and oral); format: in vivo, male ICR mice
# Method: The in vivo experimental protocol was approved by the Institutional Animal Care and Use Committee of Research Laboratory at Ildong pharmaceutical Co., Ltd. (Ref. No.: IDL-PDF-001 and 09005-11004). Animals were acclimatized to the laboratory conditions for at least 1 week before the experiments and were kept in the standardized conditions (20–25 °C, 55 ± 5% humidity, and a 12 h light/dark cycle). The animals fasted overnight prior to drug administration, and food was resupplied 4 h post-dose. In this study, a single dose of IDP-73152 at 10 mg/kg (i.e., the injection volume of 5 mL/kg, IDP-73152 dissolved in saline) was intravenously administered to male ICR mice (body weight 18.2–21.4 g, Orient Bio Inc., Seongnam, Korea) via the tail vein. […] Blood samples (100 μL) were collected from the retroorbital plexus at 0.167, 0.333, 0.5, 1, 2, 4, or 8 h after the administration. Plasma was separated/collected from the blood samples by centrifugation for 5 min at 10,000× g/4 °C and stored at −80 °C until analysis. When necessary for a model independent PK analysis, a standard moment analysis was carried out with WinNonlin software using either representative (for the study with mice) or individual (for the study with rats, dogs, and humans) concentration–time profile(s). For the calculation of PBPK models, Berkeley Madonna 8.3.18 (Albany, CA, USA) was used with the fourth-order Runge–Kutta method for numerical integration.
# [4] = male, ICR, mouse, plasma, oral 20 mg/kg
smiles,measurement,setting,value
CC(C)(C)[C@H](NC(=O)[C@H](CC1CCCC1)CN(O)C=O)C(=O)N1CCC(NCc2cc(F)c(F)cc2F)CC1 [IDP-73152],CLblood,"[1]; fresh whole blood from rats, 1 μM, 37 °C",0.717 ± 0.383 mL/min/kg
same,contribution of CLblood to the CLp,[1]; rats,2.15%
same,Kp at 10 h,"[2]; Sprague Dawley, rat, intravenous, 0.8 mg/h, adipose tissue",0.853 ± 0.196
same,Kp at 10 h,"[2]; Sprague Dawley, rat, intravenous, 0.8 mg/h, brain",0.0729 ± 0.0167
same,Kp at 10 h,"[2]; Sprague Dawley, rat, intravenous, 0.8 mg/h, heart",2.15 ± 0.22
same,Kp at 10 h,"[2]; Sprague Dawley, rat, intravenous, 0.8 mg/h, kidney",8.68 ± 1.83
same,Kp at 10 h,"[2]; Sprague Dawley, rat, intravenous, 0.8 mg/h, liver",12.2 ± 3.3
same,Kp at 10 h,"[2]; Sprague Dawley, rat, intravenous, 0.8 mg/h, lung",7.13 ± 1.28
same,Kp at 10 h,"[2]; Sprague Dawley, rat, intravenous, 0.8 mg/h, muscle",1.37 ± 0.3
same,Kp at 10 h,"[2]; Sprague Dawley, rat, intravenous, 0.8 mg/h, skin",1.08 ± 0.38
same,Kp at 10 h,"[2]; Sprague Dawley, rat, intravenous, 0.8 mg/h, spleen",4.82 ± 1.3
same,Kp at 10 h,"[2]; Sprague Dawley, rat, intravenous, 0.8 mg/h, testis",0.338 ± 0.089
same,plasma concentration during infusion,"[2]; intravenous infusion 0.8 mg/h, 10 h",2120 ± 340 ng/mL
same,Vd,"[2]; male, Sprague Dawley, rat, plasma and tissue homogenates, intravenous, 0.8 mg/h, from KP,ss of ten tissues, read-out: Vss calculated by Equation (10)",2.09 L/kg
same,concentration at 10 h,"[2]; male, Sprague Dawley, rat, plasma, intravenous infusion 0.8 mg/h for 10 h, from CLp, read-out: expected steady-state concentration",2120 ± 340 ng/mL
same,concentration at 8 h,"[2]; male, Sprague Dawley, rat, plasma, intravenous infusion 0.8 mg/h, 8 h, read-out: plasma concentration during infusion",2070 ± 360 ng/mL
same,concentration at 9 h,"[2]; male, Sprague Dawley, rat, plasma, intravenous infusion 0.8 mg/h, 9 h, read-out: plasma concentration during infusion",1910 ± 270 ng/mL
same,Vd,"[3]; male, ICR, mouse, plasma, intravenous 10 mg/kg, moment analysis, read-out: Vss",1.43 L/kg
same,half-life,"[3]; male, ICR, mouse, plasma, intravenous 10 mg/kg, read-out: t1/2 (converted)",43.9 min
same,clearance,"[3]; male, ICR, mouse, plasma, intravenous 10 mg/kg, representative concentration–time profile, read-out: CLp (converted)",25.3 mL/min/kg
same,AUC(0-inf),"[3]; male, ICR, mouse, plasma, iv, 10 mg/kg, intravenous 10 mg/kg",6590 ng·h/mL
same,Cmax,[3]; [4],3100 ng/mL
same,Tmax,[3]; [4],20 min
same,bioavailability,"[3]; male, ICR, mouse, plasma, oral 20 mg/kg vs intravenous 10 mg/kg, read-out: F (bioavailability)",78.1%
same,half-life,"[3]; male, ICR, mouse, plasma, oral 20 mg/kg, read-out: t1/2 (terminal phase half-life) (converted)",172 min
same,AUC(0-inf),"[3]; male, ICR, mouse, plasma, po, 20 mg/kg, oral 20 mg/kg",10900 ng·h/mL
same,AUCinf,"[3]; oral 20 mg/kg, 20 mg/kg",10300 ng·h/mL
